Assays:
[1] = target: serotonin 2A (5HT2A) receptor (Homo sapiens, UniProt P28223)
From the text: The ability of the novel compounds of this invention to bind to the dopamine D2 and serotonin 2A (5HT2A) receptors can be determined using conventional radioligand receptor binding assays. All receptors can be heterologously expressed in cell lines and experiments conducted in membrane preparations from the cell lines using procedures outlined below. IC50 concentrations can be determined by nonlinear regression of concentration-dependent reduction in specific binding. The Cheng-Prussoff equation can be used to convert the IC50 to Ki concentrations.
[^3H]Ketanserin binding to Swiss-h5HT2A cell membranes can be carried out in 250 μl of 50 mM Tris-HCl buffer pH 7.4. Duplicate samples containing (in order of addition) test compounds, 1.0 nM [^3H]ketanserin, and approximately 75 μg protein are incubated for 120 minutes at room temperature. Bound radioligand is separated by rapid filtration under reduced pressure through Whatman GF/B glass fiber filters previously treated with 0.3% polyethyleneimine. Radioactivity retained on the filter is determined by liquid scintillation spectrophotometry.

[2] = target: dopamine D2 receptor (Homo sapiens, UniProt P14416)
dopamine D2 receptor, sequence (P14416 whole entry): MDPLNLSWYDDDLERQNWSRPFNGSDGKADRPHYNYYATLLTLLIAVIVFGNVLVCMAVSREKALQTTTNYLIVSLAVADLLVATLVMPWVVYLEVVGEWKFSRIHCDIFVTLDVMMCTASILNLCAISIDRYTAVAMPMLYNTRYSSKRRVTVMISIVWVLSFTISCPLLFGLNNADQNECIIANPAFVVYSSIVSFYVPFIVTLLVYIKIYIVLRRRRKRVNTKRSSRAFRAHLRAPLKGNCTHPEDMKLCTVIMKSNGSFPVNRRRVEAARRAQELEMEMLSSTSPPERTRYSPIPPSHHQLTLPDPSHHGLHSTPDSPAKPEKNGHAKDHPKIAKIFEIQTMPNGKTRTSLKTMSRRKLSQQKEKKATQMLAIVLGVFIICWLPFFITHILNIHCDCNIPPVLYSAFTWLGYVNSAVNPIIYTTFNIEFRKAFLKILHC

serotonin 2A (5HT2A) receptor, sequence (P28223 whole entry): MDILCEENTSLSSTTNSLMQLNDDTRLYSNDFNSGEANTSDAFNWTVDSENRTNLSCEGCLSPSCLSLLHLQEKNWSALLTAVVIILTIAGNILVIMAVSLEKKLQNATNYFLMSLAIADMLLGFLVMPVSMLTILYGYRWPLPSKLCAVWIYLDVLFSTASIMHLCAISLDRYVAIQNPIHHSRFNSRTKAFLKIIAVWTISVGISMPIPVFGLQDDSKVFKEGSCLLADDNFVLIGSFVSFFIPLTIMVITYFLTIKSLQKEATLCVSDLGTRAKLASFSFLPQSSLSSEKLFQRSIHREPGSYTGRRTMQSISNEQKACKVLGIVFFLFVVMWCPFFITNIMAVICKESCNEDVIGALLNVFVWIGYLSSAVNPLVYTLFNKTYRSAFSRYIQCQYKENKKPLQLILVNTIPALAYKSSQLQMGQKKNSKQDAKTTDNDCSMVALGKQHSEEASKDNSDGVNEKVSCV

| Ki [1] [nM] | Ki [2] [nM] | melting point [°C] | SMILES |
| --- | --- | --- | --- |
|  |  | 212 | CC1Cc2cc(CCCN3CCN(c4nsc5ccccc45)CC3)ccc2NC1=O (stereo not shown) [Example 59, 6-[3-(4-BENZO[D]ISOTHIAZOL-3-YL-PIPERAZIN-1-YL)-PROPYL]-3-METHYL-3,4-DIHYDRO-1H-QUINOLIN-2-ONE] |
|  |  | 206 to 208 | CN1Cc2c(c3cc(CCCN4CCN(c5nsc6ccccc56)CC4)ccc3[nH]c2=O)C1 [Example 172, 8-[3-(4-BENZO[D]ISOTHIAZOL-3-YL-PIPERAZIN-1-YL)-PROPYL]-2-METHYL-1,2,3,5-TETRAHYDRO-PYRROLO[3,4-C]QUINOLIN-4-ONE] |
|  |  | 185 to 187 | CC1Cc2cc(CCCN3CCN(c4noc5ccccc45)CC3)ccc2NC1=O (stereo not shown) [Example 60, 6-[3-(4-BENZO[D]ISOXAZOL-3-YL-PIPERAZIN-1-YL)-PROPYL]-3-METHYL-3,4-DIHYDRO-1H-QUINOLIN-2-ONE] |
|  |  | 205 to 207 | CN1Cc2c(c3cc(CCN4CCN(c5nsc6ccccc56)CC4)ccc3[nH]c2=O)C1 [Example 173, 8-[2-(4-BENZO[D]ISOTHIAZOL-3-YL-PIPERAZIN-1-YL)-ETHYL]-2-METHYL-1,2,3,5-TETRAHYDRO-PYRROLO[3,4-C]QUINOLIN-4-ONE] |

Further lines, the molecule ahead of its results:

| SMILES | Ki [1] [nM] | Ki [2] [nM] | melting point [°C] |
| --- | --- | --- | --- |
| Cc1c(Cl)c(CCN2CCN(c3nsc4ccccc34)CC2)cc2c1NC(=O)CC2(C)C [Example 23, 6-[2-(4-BENZO[D]ISOTHIAZOL-3-YL-PIPERAZIN-1-YL)-ETHYL]-7-CHLORO-4,4,8-TRIMETHYL-3,4-DIHYDRO-1H-QUINOLIN-2-ONE METHANESULFONATE] | 1 | 0.9 |  |
| CC1(C)Cc2cc(CCN3CCN(c4noc5ccccc45)CC3)ccc2NC1=O [Example 8, 6-[2-(4-BENZO[D]ISOXAZOL-3-YL-PIPERAZIN-1-YL)-ETHYL]-3,3-DIMETHYL-3,4-DIHYDRO-1H-QUINOLIN-2-ONE] | 5 | 7 |  |
| COc1cccc2c(N3CCN(CCc4cc(C)c5c(c4)C(C)(C)CC(=O)N5)CC3)nsc12 [Example 31, 6-{2-[4-(7-METHOXY-BENZO[D]ISOTHIAZOL-3-YL)-PIPERAZIN-1-YL]-ETHYL}-4,4,8-TRIMETHYL-3,4-DIHYDRO-1H-QUINOLIN-2-ONE] | 2 | 1 |  |
